In patent US20060173066A1, “Remedy for diabetes” (Kyowa Hakko Kogyo Co., Ltd., priority 2003, published 2006):

How the values were obtained:
Type in all cases: in vivo
[1] = tested on: KK-Ay/Ta Jcl mice of a type 2 diabetic model; assay: Example 1: serum-insulin level after 18 hours fasting in mice fed CE-2 feed with 1% by weight of test substance
Text: (§1) KK-Ay/Ta Jcl mice (Clea Japan, Inc.; male; six weeks age) (15 mice) of a type 2 diabetic model were divided into three groups each comprising five mice and named group 1 to group 3.
(§2) The mice of the groups 1 to 3 were made free to take feed and water. A commercially available feed CE-2 (manufactured by Clea Japan, Inc.) was ingested to the mice of group 1. CE-2 to which 1% by weight of trans-4-hydroxy-L-proline (manufactured by Kyowa Hakko Kogyo; hereinafter, abbreviated as hydroxyproline) was added was ingested to the mice of group 2. CE-2 to which 1% by weight of trans-N-acetyl-4-hydroxy-L-proline (manufactured by Kyowa Hakko Kogyo; hereinafter, abbreviated as N-acetylhydroxyproline) was added was ingested to the mice of group 3.
(§3) On the initial day of the test and on the 17th day thereafter, blood was collected from tail vein and blood-sugar level upon non-fasting was measured by a Medisafe Reader GR-101 (manufactured by Thermo Co.). The mice were fasted for 18 hours during the 17th day to the 18th day after the start of the test and whole blood was collected from descending vena cava to prepare serum. The serum-insulin level was measured by a Levi Insulin Kit Mouse-T (manufactured by Shibayagi). The value was shown by mean value±standard error (n=5) and statistic ratio of risk (p value) was determined by a t-test. With regard to the ingested amounts during the test periods, there was no significant difference among the groups 1 to 3.

[2] = tested on: GK/Jcl rats of a type 2 diabetic model; assay: Example 4: blood-sugar level after single oral administration in rats; details: 1,000 mg/kg B.W. oral
Procedure: GK/Jcl rats (Clea Japan, Inc; male; nine weeks age) (12 mice) of a type 2 diabetic model were divided into two groups each comprising six mice and named group 1 and group 2.
Five ml/kg B.W. of a solvent (0.5% (w/v) methyl cellulose #400) was orally administered to the rats of the group 1. A 200 mg/ml solution of the hydroxyproline in the same solvent was orally administered to the rats of the group 2 so as to make the amount of administration 1,000 mg/kg B.W. Blood was collected from tail vein upon administration of the solvent or the hydroxyproline solution (0 minute) and 30 minutes, 60 minutes and 120 minutes after the administration and blood-sugar levels were measured by a Medisafe Reader GR-101. The value was shown by mean value±standard error (n=6) and statistic ratio of risk (p value) was determined by a t-test.

[3] = tested on: KK-Ay/Ta Jcl mice of a type 2 diabetic model; assay: Example 1: non-fasting blood-sugar level in mice fed CE-2 feed with 1% by weight of test substance
Text: as §1, §2, §3

[4] = tested on: GK/Jcl rats of a type 2 diabetic model; assay: Example 5: blood-sugar level after oral glucose load in fasted rats; details: for Blood-Sugar Level, 30 min: 30 minutes after glucose 2 g/kg; for Blood-Sugar Level, 30 min / Blood-Sugar Level, −30 min / Blood-Sugar Level, 60 min / Blood-Sugar Level, 120 min / Blood-Sugar Level, 0 min: n=6; for Blood-Sugar Level, −30 min: 30 minutes before glucose 2 g/kg (baseline, at dosing), mean ± standard error; for Blood-Sugar Level, 60 min: 60 minutes after glucose 2 g/kg; for Blood-Sugar Level, 120 min: 120 minutes after glucose 2 g/kg; for Blood-Sugar Level, 0 min: upon glucose administration 2 g/kg
Procedure: GK/Jcl rats (Clea Japan, Inc.; male; nine weeks age) (18 mice) of a type 2 diabetic model were divided into three groups each comprising six mice and named groups 1 to 3.
After fasting for 18 hours, 5 ml/kg B.W. of a solvent (0.5% (w/v) methyl cellulose #400) was orally administered to the rats of the group 1. A 60 mg/ml solution of the hydroxyproline in the same solvent was orally administered to the rats of the group 2 so as to make the amount of administration 300 mg/kg B.W. A 200 mg/ml solution of the hydroxyproline in the same solvent was orally administered to the rats of the group 3 so as to make the amount of administration 1,000 mg/kg B.W. After 30 minutes from the oral administration, 2 g/kg B.W. of a 20% (w/v) aqueous solution of glucose was orally administered to the mice of the groups 1 to 3 to load with sugar. Blood was collected from tail vein 30 minutes before the administration of the aqueous glucose solution (−30 minutes), upon the administration (0 minute) and 30 minutes, 60 minutes and 120 minutes after the administration and blood-sugar levels were measured by a Medisafe Reader GR-101.
The value was shown by mean value±standard error (n=6) and statistic ratio of risk (p value) between the groups 1 and 2 and that between the groups 1 and 3 was determined by a one-way layout dispersion analysis and by a Dunnett test.

Q: `O=C(O)[C@@H]1C[C@@H](O)CN1` [hydroxyproline, trans-4-hydroxy-L-proline] was tested. Which “antidiabetic action by improving insulin resistance (conclusion from Tables 1 and 2)” value [1] did it give?
A: show an antidiabetic action by improving the insulin resistance

Q: What about the “Serum-Insulin Level” value ([1]; 18th day after 18 hours fasting, mean ± standard error, n=5) of the same molecule?
A: 1.01 ± 0.08 ng/mL

Q: And the “antidiabetic action (conclusion from Table 6)” value [2]?
A: antidiabetic action

Q: And the “Blood-Sugar Level, 30 min” value ([2]; 30 minutes after administration, mean ± standard error, n=6)?
A: 220.3 ± 13.8 mg/dL

Q: And the “Blood-Sugar Level, 60 min” value ([2]; 60 minutes after administration, mean ± standard error, n=6)?
A: 189.5 ± 10.9 mg/dL

Q: And the “Blood-Sugar Level, 120 min” value ([2]; 120 minutes after administration, mean ± standard error, n=6)?
A: 156.0 ± 6.8 mg/dL

Q: What about the “Blood-Sugar Level, 0 min” value ([2]; upon administration (baseline), mean ± standard error, n=6) of the same molecule?
A: 189.2 ± 8.4 mg/dL

Q: What about the “antidiabetic action (conclusion from Table 1)” value ([3]; 17 days) of the same molecule?
A: antidiabetic action

Q: What about the “Blood-Sugar Level, 17th Day of the Test” value ([3]; non-fasting, tail vein blood, 17th day, mean ± standard error, n=5) of the same molecule?
A: 260.4 ± 10.8 mg/dL

Q: What about the “Blood-Sugar Level, Initial Day of the Test” value ([3]; non-fasting, tail vein blood, initial day (baseline), mean ± standard error, n=5) of the same molecule?
A: 243.0 ± 12.2 mg/dL

Q: What about the “Blood-Sugar Level, 30 min” value ([4]; 300 mg/kg B.W. oral) of the same molecule?
A: 269.5 ± 15.3 mg/dL

Q: What about the “Blood-Sugar Level, −30 min” value ([4]; 300 mg/kg B.W. oral) of the same molecule?
A: 113.3 ± 2.7 mg/dL

Q: What about the “Blood-Sugar Level, 60 min” value ([4]; 300 mg/kg B.W. oral) of the same molecule?
A: 298.2 ± 7.5 mg/dL

Q: What about the “Blood-Sugar Level, 120 min” value ([4]; 300 mg/kg B.W. oral) of the same molecule?
A: 207.5 ± 6.3 mg/dL

Q: What about the “Blood-Sugar Level, 0 min” value ([4]; 300 mg/kg B.W. oral) of the same molecule?
A: 144.2 ± 7.2 mg/dL

Q: And the “Blood-Sugar Level, 30 min” value ([4]; 1,000 mg/kg B.W. oral)?
A: 226.2 ± 3.0 mg/dL

Q: And the “Blood-Sugar Level, −30 min” value ([4]; 1,000 mg/kg B.W. oral)?
A: 112.2 ± 3.3 mg/dL

Q: What about the “Blood-Sugar Level, 60 min” value ([4]; 1,000 mg/kg B.W. oral) of the same molecule?
A: 247.3 ± 4.4 mg/dL

Q: And the “Blood-Sugar Level, 120 min” value ([4]; 1,000 mg/kg B.W. oral)?
A: 181.2 ± 7.3 mg/dL

Q: What about the “Blood-Sugar Level, 0 min” value ([4]; 1,000 mg/kg B.W. oral) of the same molecule?
A: 137.0 ± 6.6 mg/dL

Q: And the “antidiabetic action (conclusion from Table 7)” value ([4]; 300 and 1,000 mg/kg B.W. oral, glucose load)?
A: dose-dependent antidiabetic-action
